For four molecules, IC50 and Activity results are on record in ChEMBL document CHEMBL1142408, “Synthesis and biological evaluation of 10,11-dihydrodictyostatin, a potent analogue of the marine anticancer agent dictyostatin” (J Nat Prod, 2008).

Common to all, as to assay type: functional, cell-based
In one assay the test system is ASPC1. Kind of assay: Cytotoxicity against human AsPC1 cells after 72 hrs by MTT assay. The following applies: ASPC1, 72 h.
Another assay deals with DLD-1. Kind of assay: Cytotoxicity against human DLD1 cells after 72 hrs by MTT assay. The following applies: DLD-1, 72 h. For orientation: Tetrazolium assays rely on reduction of a dye to a coloured formazan, in cell work by metabolically active cells.
Assay [1] deals with PANC-1. Description: Cytotoxicity against human PANC1 cells after 72 hrs by MTT assay. The settings on record: PANC-1, 72 h.
A short description of assay [2]: Cytotoxicity against taxol-resistant human NCI/ADR cells after 72 hrs by MTT assay. The settings on record: NCI/ADR-RES.
Assay [3] deals with PANC-1. Description: Cell cycle arrest in human PANC1 cells assessed as accumulation at G2/M phase after 24 hrs.
In assay [4] the test system is PANC-1. Kind of assay: Microtubule polymerization in human PANC1 cells.
The next assay has as its system P388. Kind of assay: Cytotoxicity against mouse P388 cells by MTT assay.

Active and inactive are the calls of the source. The calls are words filed in the database; no cut-off is given here.

Usually IC50 stands for the midpoint of a concentration-inhibition curve. A higher IC50 goes with weaker potency. For the molecule `C=C/C=C\[C@H](C)[C@@H]1OC(=O)/C=C\C=C\[C@@H](C)[C@@H](O)C[C@H](O)/C=C\[C@H](C)[C@H](O)[C@@H](C)C[C@@H](C)CC[C@@H](O)[C@@H]1C` [DICTYOSTATIN], the half-maximal inhibitory concentration (IC50) in the assay on ASPC1 turned out to be 9 nM; in the assay on DLD-1, 0.8 nM; in the assay with PANC-1 [1] it was 3.4 nM; in assay [2] it was 9.8 nM.

On to `C=C/C=C\[C@H](C)[C@@H]1OC(=O)/C=C\C=C\[C@@H](C)[C@@H](O)C[C@H](O)CC[C@H](C)[C@H](O)[C@@H](C)C[C@@H](C)CC[C@@H](O)[C@@H]1C`, for which the 50% inhibitory concentration (IC50) in the assay on ASPC1 was determined as 43 nM; with DLD-1 it was 10 nM; in the assay with PANC-1 [1], 18 nM; in assay [2], 300 nM. The result with PANC-1 [3] and in the assay on PANC-1 [4] was Active.

For `CC(=O)O[C@H]1C(=O)[C@@]2(C)[C@H]([C@H](OC(=O)c3ccccc3)[C@]3(O)C[C@H](OC(=O)[C@H](O)[C@@H](NC(=O)c4ccccc4)c4ccccc4)C(C)=C1C3(C)C)[C@]1(OC(C)=O)CO[C@@H]1C[C@@H]2O` [PACLITAXEL], the half-inhibitory concentration (IC50) with ASPC1 worked out at 20 nM; in the assay on DLD-1, 11 nM; with PANC-1 [1] it was 7 nM; in assay [2], 1000 nM.

With `C=C/C=C\[C@H](C)[C@H](OC(N)=O)[C@@H](C)[C@H](O)[C@@H](C)C/C(C)=C\[C@H](C)[C@@H](O)[C@@H](C)/C=C\[C@@H](O)C[C@@H]1OC(=O)[C@H](C)[C@@H](O)[C@H]1C` [DISERMOLIDE], the half-inhibitory concentration (IC50) in the assay with P388 worked out at 35 nM; in the assay on ASPC1, 98 nM; in the assay with DLD-1 it was 29 nM; in the assay with PANC-1 [1], 59 nM; in assay [2], 160 nM.
